Measurements taken from patent US20090131481A1, “Transcription Factor Modulating Compounds and Methods of Use Thereof” (Paratek Pharmaceuticals, Inc., published 2009).
Where two headings read alike, the source gives them in different places.

Legend:
Y. pseudotuberculosis = assay: microbe, parasite or virus in culture; conditions: Yersinia pseudotuberculosis, J774, read-out: % Cytotoxicity
P. aeruginosa = P. aeruginosa cytotoxicity whole cell assay (J774 cells, LDH release); conditions: relative to vehicle treated cells infected with wild type P. aeruginosa
ExsA = target: T1, ExsA (Pseudomonas aeruginosa, UniProt P26993); assay: Chemiluminescence-based ExsA-DNA binding assay; set-up: species or system P. aeruginosa; conditions: Table 7, cell-free system; read-out: ExsA EC50
T1 construct: made in house
T1 sequence (P26993 1-278): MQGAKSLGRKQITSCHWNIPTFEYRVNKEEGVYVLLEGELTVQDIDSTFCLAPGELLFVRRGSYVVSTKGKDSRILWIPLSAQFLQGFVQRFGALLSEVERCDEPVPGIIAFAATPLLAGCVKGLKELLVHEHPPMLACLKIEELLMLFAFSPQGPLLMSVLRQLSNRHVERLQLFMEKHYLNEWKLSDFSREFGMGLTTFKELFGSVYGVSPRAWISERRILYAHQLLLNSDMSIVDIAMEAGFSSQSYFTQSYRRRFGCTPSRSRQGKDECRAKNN

LcrF (VirF) = LcrF (VirF) (Yersinia pestis, UniProt P28808); assay: biochemical; assay type: binding, Y. pseudotuberculosis
LcrF (VirF), sequence (P28808 whole entry, looked up): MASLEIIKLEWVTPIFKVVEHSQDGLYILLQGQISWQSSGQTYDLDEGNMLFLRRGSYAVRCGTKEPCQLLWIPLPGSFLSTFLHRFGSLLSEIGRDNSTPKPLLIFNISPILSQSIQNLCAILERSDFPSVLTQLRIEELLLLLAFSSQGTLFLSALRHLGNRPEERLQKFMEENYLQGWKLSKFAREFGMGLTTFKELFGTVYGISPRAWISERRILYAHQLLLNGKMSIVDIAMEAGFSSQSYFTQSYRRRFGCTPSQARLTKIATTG

[1] = EC50 for inhibition of LcrF(VirF)-DNA binding
[2] = read-out: EC50 for inhibition of LcrF(VirF)-DNA binding

Row | Structure (SMILES) | activity at 50 µg/mL (Y. pseudotuberculosis) [%] | Cytotoxicity at 50 μg/mL Pseudomonas (P. aeruginosa) | EC50 (ExsA) [µM] | EC50 (LcrF (VirF); [1]) [µM] | EC50 (LcrF (VirF); [2]) [µM]
1 | CC(=O)c1ccc(C(=O)Nc2ccc(-c3nc4cc(C)c([N+](=O)[O-])cc4n3O)cc2)cc1 [EQ] | < 75 | * (reduced P. aeruginosa cytotoxicity to 99-75% of untreated, wild type levels at 50 mg/mL) |  |  | 
2 | O=C(/C=C/c1ccc(C(F)(F)F)nc1)Nc1ccc(-c2nc3ccc([N+](=O)[O-])cc3n2O)cc1 [GT] |  | ** (reduced P. aeruginosa cytotoxicity below 75% of untreated, wild type levels at 50 mg/mL) | < 10 |  | 
3 | CC(=O)c1ccc(/C=C/C(=O)N(CC(=O)O)c2ccc(-c3nc4ccc(C#N)cc4n3O)cc2)cc1 [GO, {[(E)-3-(4-Acetyl-phenyl)-acryloyl]-[4-(6-cyano-1-hydroxy-1H-benzoimidazol-2-yl)-phenyl]-amino}-acetic acid] |  | * (reduced P. aeruginosa cytotoxicity to 99-75% of untreated, wild type levels at 50 mg/mL) | > 25 |  | 
4 | O=C(/C=C/c1ccc(F)cc1)Nc1ccc(-c2nc3ccc([N+](=O)[O-])cc3n2OCP(=O)(O)O)cc1 [DW, (2-{4-[(E)-3-(4-Fluoro-phenyl)-acrloylamino]-phenyl}-6-nitro-benzoimidazol-1-yloxymethyl)-phosphonic acid] | 75 to 99 | * (reduced P. aeruginosa cytotoxicity to 99-75% of untreated, wild type levels at 50 mg/mL) |  |  | 
5 | CC(=O)c1ccc(C(=O)Nc2ccc(-c3nc4ccc(-n5ccnc5)cc4n3O)cc2)cc1 [FZ, 4-Acetyl-N-[4-(1-hdroxy-6-imidazol-1-yl-1H-benzoimidazol-2-yl)-phenyl]-benzamide] |  | * (reduced P. aeruginosa cytotoxicity to 99-75% of untreated, wild type levels at 50 mg/mL) | > 25 |  | 
6 | CC(=O)c1ccc(/C=C/C(=O)Nc2ccc(-c3nc4ccc(C(=O)O)cc4n3O)cc2)cc1 [GL] |  | ** (reduced P. aeruginosa cytotoxicity below 75% of untreated, wild type levels at 50 mg/mL) | > 25 |  | 
7 | N#Cc1ccc2nc(-c3ccc(NC(=O)/C=C/c4ccc(-n5ccnc5)nc4)cc3)n(O)c2c1 [GV] |  | ** (reduced P. aeruginosa cytotoxicity below 75% of untreated, wild type levels at 50 mg/mL) | > 25 |  | 
8 | CC(=O)c1ccc(/C=C/C(=O)Nc2ccc(-c3nc4ccc(C(F)(F)F)cc4n3O)cc2)cc1 [GE] |  | * (reduced P. aeruginosa cytotoxicity to 99-75% of untreated, wild type levels at 50 mg/mL) | 10 to 25 |  | 
9 | CC(=O)c1ccc(/C=C/C(=O)Nc2ccc(-c3nc4ccc(Br)cc4n3O)cc2)cc1 [GD] |  | * (reduced P. aeruginosa cytotoxicity to 99-75% of untreated, wild type levels at 50 mg/mL) | < 10 |  | 
10 | O=C(/C=C/c1ccc(F)cc1F)Nc1ccc(-c2nc3ccc([N+](=O)[O-])cc3n2O)nc1 [EA] | < 75 | * (reduced P. aeruginosa cytotoxicity to 99-75% of untreated, wild type levels at 50 mg/mL) |  |  | 
11 | N#Cc1ccc(C(=O)Nc2ccc(-c3nc4ccc(C#N)cc4n3O)cc2)cc1 [CO] | 75 to 99 | * (reduced P. aeruginosa cytotoxicity to 99-75% of untreated, wild type levels at 50 mg/mL) |  |  | 
12 | N#Cc1ccc2nc(-c3ccc(NC(=O)c4ccc(-n5ccnc5)cc4)cc3)n(O)c2c1 [GA] |  | ** (reduced P. aeruginosa cytotoxicity below 75% of untreated, wild type levels at 50 mg/mL) | 10 to 25 | 10 to 25 | 
13 | CC(=O)c1ccc(/C=C/C(=O)Nc2ccc(-c3nc4ccc(F)cc4n3O)cc2)cc1 [GR] |  | * (reduced P. aeruginosa cytotoxicity to 99-75% of untreated, wild type levels at 50 mg/mL) | 10 to 25 |  | 
14 | Cc1cc2nc(-c3ccc(NC(=O)/C=C/c4ccc(F)cc4)cc3)n(O)c2cc1[N+](=O)[O-] [EO, (E)-3-(4-Fluoro-phenyl)-N-[4-(1-hydroxy-5-methyl-6-nitro-1H-benzoimidazol-2-yl)-phenyl]-acrylamide] | 75 to 99 | ** (reduced P. aeruginosa cytotoxicity below 75% of untreated, wild type levels at 50 mg/mL) |  |  | 
15 | CC(=O)c1ccc(/C=C/C(=O)Nc2ccc(-c3nc4ccc(S(C)(=O)=O)cc4n3O)cc2)cc1 [GK] |  | * (reduced P. aeruginosa cytotoxicity to 99-75% of untreated, wild type levels at 50 mg/mL) | > 25 |  | 
16 | O=C(/C=C/c1ccc(F)cc1)Nc1ccc(-c2nc3ccc([N+](=O)[O-])cc3n2O)cn1 [DY] | < 75 | * (reduced P. aeruginosa cytotoxicity to 99-75% of untreated, wild type levels at 50 mg/mL) |  |  | 
17 | CC(=O)c1ccc(/C=C/C(=O)Nc2ccc(-c3nc4cc(OCCN5CCOCC5)c([N+](=O)[O-])cc4n3O)cc2)cc1 [FV] |  | ** (reduced P. aeruginosa cytotoxicity below 75% of untreated, wild type levels at 50 mg/mL) | > 25 |  | > 25

Row | Structure (SMILES) | activity at 50 µg/mL (Y. pseudotuberculosis) [%] | Cytotoxicity at 50 μg/mL Pseudomonas (P. aeruginosa) | EC50 (ExsA) [µM] | EC50 (LcrF (VirF); [1]) [µM] | EC50 (LcrF (VirF); [2]) [µM]
18 | CC(=O)c1ccc(/C=C/C(=O)N(CC(N)=O)c2ccc(-c3nc4ccc([N+](=O)[O-])cc4n3O)cc2)cc1 [GP, (E)-3-(4-Acetyl-phenyl)-N-carbamoylmethyl-N-[4-(1-hydroxy-6-nitro-1H-benzoimidazol-2-yl)-phenyl]-acrylamide] |  | * (reduced P. aeruginosa cytotoxicity to 99-75% of untreated, wild type levels at 50 mg/mL) | > 25 |  | 
19 | CCOP(=O)(Cc1cc(/C=C/C(=O)Nc2ccc(-c3nc4ccc([N+](=O)[O-])cc4n3O)cc2)ccc1F)OCC [EF] | < 75 | * (reduced P. aeruginosa cytotoxicity to 99-75% of untreated, wild type levels at 50 mg/mL) |  |  | 
20 | CS(=O)(=O)c1ccc(/C=C/C(=O)Nc2ccc(-c3nc4ccc([N+](=O)[O-])cc4n3O)cc2)cc1 [GU] |  | ** (reduced P. aeruginosa cytotoxicity below 75% of untreated, wild type levels at 50 mg/mL) | < 10 |  | 
21 | CN(C)CCOc1cc2nc(-c3ccc(NC(=O)/C=C/c4ccc(F)cc4)cc3)n(O)c2cc1[N+](=O)[O-] [FS] |  | * (reduced P. aeruginosa cytotoxicity to 99-75% of untreated, wild type levels at 50 mg/mL) | > 25 |  | 
22 | CC(=O)c1ccc(/C=C/C(=O)Nc2ccc(-c3nc4ccc(S(N)(=O)=O)cc4n3O)cc2)cc1 [GF] |  | * (reduced P. aeruginosa cytotoxicity to 99-75% of untreated, wild type levels at 50 mg/mL) | 10 to 25 |  | 
23 | CC(=O)c1ccc(/C=C/C(=O)Nc2ccc(-c3nc4ccc(C#N)cc4n3O)cc2)cc1 [FW] |  | ** (reduced P. aeruginosa cytotoxicity below 75% of untreated, wild type levels at 50 mg/mL) | 10 to 25 | 10 to 25 | 
24 | CC(=O)c1ccc(/C=C/C(=O)Nc2ccc(-c3nc4ccc([N+](=O)[O-])cc4n3O)cc2)cn1 [GN] |  | ** (reduced P. aeruginosa cytotoxicity below 75% of untreated, wild type levels at 50 mg/mL) | < 10 |  | 
25 | O=C(/C=C/c1ccc(F)cc1F)Nc1ccc(-c2nc3ccc([N+](=O)[O-])cc3n2O)cn1 [EB] | < 75 | * (reduced P. aeruginosa cytotoxicity to 99-75% of untreated, wild type levels at 50 mg/mL) |  |  | 
26 | CC(=O)c1ccc(/C=C/C(=O)N(CC(N)=O)c2ccc(-c3nc4ccc(C#N)cc4n3O)cc2)cc1 [GQ] |  | * (reduced P. aeruginosa cytotoxicity to 99-75% of untreated, wild type levels at 50 mg/mL) | > 25 |  | 
27 | O=C(/C=C/c1ccc(F)cc1)Nc1ccc(-c2nc3ccc(-n4ccnc4)cc3n2O)cc1 [FT] |  | * (reduced P. aeruginosa cytotoxicity to 99-75% of untreated, wild type levels at 50 mg/mL) | 10 to 25 | > 25 | 
28 | CC(=O)c1ccc(/C=C/C(=O)Nc2ccc(-c3nc4ccc(C(C)=O)cc4n3O)cc2)cc1 [GI] |  | * (reduced P. aeruginosa cytotoxicity to 99-75% of untreated, wild type levels at 50 mg/mL) | > 25 |  | 
29 | O=C(/C=C/c1ccc(-n2ccnc2)nc1)Nc1ccc(-c2nc3ccc([N+](=O)[O-])cc3n2O)cc1 [GS] |  | ** (reduced P. aeruginosa cytotoxicity below 75% of untreated, wild type levels at 50 mg/mL) | 10 to 25 |  | 
30 | CC(=O)c1ccc(/C=C/C(=O)Nc2ccc(-c3nc4ccccc4n3O)cc2)cc1 [GH] |  | * (reduced P. aeruginosa cytotoxicity to 99-75% of untreated, wild type levels at 50 mg/mL) | 10 to 25 |  | 
31 | CC(=O)c1ccc(C(=O)Nc2ccc(-c3nc4ccc(-n5cccn5)cc4n3O)cc2)cc1 [FY, 4-Acetyl-N-[4-(1-hdroxyy-6-pyrazol-1-yl-1H-benzoimidazol-2-yl)-phenyl]-benzamide] |  | * (reduced P. aeruginosa cytotoxicity to 99-75% of untreated, wild type levels at 50 mg/mL) | > 25 |  | > 25
32 | O=C(/C=C/c1ccc(F)cc1)Nc1ccc(-c2nc3cc(F)c([N+](=O)[O-])cc3n2O)cc1 [FA, N-[4-(5-Fluoro-1-hydroxy-6-nitro-1H-benzoimidazol-2-yl)-phenyl]-3-(4-fluoro-cinnamyl)-amide] |  | ** (reduced P. aeruginosa cytotoxicity below 75% of untreated, wild type levels at 50 mg/mL) | 10 to 25 | > 25 | 
33 | O=C(/C=C/c1ccc(F)cc1)Nc1ccc(-c2nc3ccc(-n4cccn4)cc3n2O)cc1 [FX, (E)-3-(4-Fluoro-phenyl)-N-[4-(1-hydroxy-6-pyrazol-1-yl-1H-benzoimidazol-2-yl)-phenyl]-acrylamide] |  | * (reduced P. aeruginosa cytotoxicity to 99-75% of untreated, wild type levels at 50 mg/mL) | > 25 | > 25 | 
